Laboratory results taken from patent US11147815B2, “Compositions and methods for treating diseases associated with uncontrolled inflammatory responses” (SF17 THERAPEUTICS, INC., priority 2018, dated 2021).

Tests used:
TRIM8 = biological target: T1, TRIM8 (Homo sapiens, UniProt Q9BZR9); experiment: Cell-based screen for TRIM8 inhibition: CXCL9, CXCL10 and CXCL11 accumulation in IFN-γ-stimulated THP-1 cells; conditions: for Normalized Average of IP-10/CXCL10 / Normalized Average of MIG/CXCL9 / Normalized Average of I-TAC/CXCL11 / Effect on inflammatory response (CXCL9, CXCL10, CXCL11 after IFN-γ): THP-1 cells; for Normalized Average of IP-10/CXCL10 / Normalized Average of MIG/CXCL9 / Normalized Average of I-TAC/CXCL11: 10 µM compound 4 hours, then 200 U human IFN-γ, 12 hours, flow cytometer; for Normalized Average of IP-10/CXCL10 / Normalized Average of MIG/CXCL9: degree of change from control (<1 inhibition, >1 enhancement), triplicate; for Normalized Average of I-TAC/CXCL11: degree of change from control, high background in read-out; for Effect on inflammatory response (CXCL9, CXCL10, CXCL11 after IFN-γ) / TRIM8 inhibitor or enhancer activity found on testing: summary in words; for TRIM8 inhibitor or enhancer activity found on testing: Example 4
T1 construct: 20,000 THP-1 cells; endogenous in cells; host or cells: THP-1
T1 sequence (Q9BZR9 1-551): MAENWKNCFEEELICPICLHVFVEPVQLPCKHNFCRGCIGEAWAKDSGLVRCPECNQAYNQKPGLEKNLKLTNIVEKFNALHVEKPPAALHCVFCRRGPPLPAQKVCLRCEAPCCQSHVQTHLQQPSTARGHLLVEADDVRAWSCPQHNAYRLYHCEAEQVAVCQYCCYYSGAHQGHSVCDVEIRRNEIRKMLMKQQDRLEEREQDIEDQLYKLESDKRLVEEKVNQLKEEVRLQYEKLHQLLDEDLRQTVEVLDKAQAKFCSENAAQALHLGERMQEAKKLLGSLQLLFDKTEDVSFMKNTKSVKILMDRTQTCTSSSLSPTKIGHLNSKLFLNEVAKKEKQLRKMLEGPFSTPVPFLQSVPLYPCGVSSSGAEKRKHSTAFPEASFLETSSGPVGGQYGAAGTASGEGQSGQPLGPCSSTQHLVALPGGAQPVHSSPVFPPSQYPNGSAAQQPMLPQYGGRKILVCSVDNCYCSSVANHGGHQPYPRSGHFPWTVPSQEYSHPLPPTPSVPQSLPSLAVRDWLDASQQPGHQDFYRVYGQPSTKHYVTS
Method: (§1) A library of small molecule compounds comprising an E2-RING domain or a RING-RING domain was screen for TRIM8 inhibition in a cell-based assay. 20,000 THP-1 cells (a human myeloid cell line which imitates human monocyte cell inflammatory behavior and responds to IFN-γ stimulation by expressing […] CXCL9, CXCL10 and CXCL11) were incubated with […] of each compound (dissolved in DMSO) for 4 hours, then stimulated with 200 U (units) of human IFN-γ. The effect of the stimulation as measured by changes in accumulation levels of the cytokines CXCL9, CXCL10 and CXCL11 in extracellular fluid was determined by flow cytometer after 12 hours and compared to control (IFN-γ stimulation with no compound).
Each compound is identified by its ChemDiv catalog number.
Values in Table 1 are reported as degree of change from the control state. Values less than 1 indicate inhibition of cytokine response, and values greater than 1 indicate enhancement of cytokine response. Smaller values indicate a higher degree of inhibition. Values closer to zero indicate profound inhibition of cytokine response, and thus significant suppression of inflammatory responses conferred via inhibition of TRIM8 by the tested compounds. CXCL11 values are higher due to a high background in their read-out (relatively high CXCL11 values indicate […]). Standard errors reflect the degree of variation seen in the triplicate tests for each compound.

THP-1 cells = experiment: Cell count in the THP-1 screening assay; type: cell-based, human; conditions: 10 µM compound, IFN-γ stimulation, normalized to control
Method: as §1

CCc1cccc2c(C(CC(=O)N3CCN(c4ccc([N+](=O)[O-])cc4)CC3)c3cccc4c3OCO4)c[nH]c12 (stereo not drawn) [Compound 130, 3-(2H-1,3-benzodioxol-4-yl)-3-(7-ethyl-1H-indol-3-yl)-1-[4-(4-nitrophenyl)piperazin-1-yl]propan-1-one]
Normalized Average of IP-10/CXCL10 (TRIM8): 0.794
Normalized Average of MIG/CXCL9 (TRIM8): 7.574
Normalized Average of I-TAC/CXCL11 (TRIM8): 0.806
Effect on inflammatory response (CXCL9, CXCL10, CXCL11 after IFN-γ) (TRIM8): significant enhancement of inflammatory response
TRIM8 inhibitor or enhancer activity found on testing (TRIM8): potent TRIM8 enhancer
Average Normalized Cell Count (THP-1 cells): 1.135

COc1ccc(CN2C(=O)NC(=O)/C(=C\c3cccc4ccccc34)C2=O)cc1 [Compound 17, (5E)-1-[(4-methoxyphenyl)methyl]-5-[(naphthalen-1-yl)methylidene]-1,3-diazinane-2,4,6-trione]
Normalized Average of IP-10/CXCL10 (TRIM8): 3.640
Normalized Average of MIG/CXCL9 (TRIM8): 2.545
Normalized Average of I-TAC/CXCL11 (TRIM8): 4.410
Effect on inflammatory response (CXCL9, CXCL10, CXCL11 after IFN-γ) (TRIM8): significant enhancement of inflammatory response
TRIM8 inhibitor or enhancer activity found on testing (TRIM8): potent TRIM8 enhancer
Average Normalized Cell Count (THP-1 cells): 1.435

O=C(NCCCc1ccccc1)c1n[nH]c2c1CN(C(=O)c1cc(F)ccc1F)CC2 [Compound 120, 5-(2,5-difluorobenzoyl)-N-(3-phenylpropyl)-1H,4H,5H,6H,7H-pyrazolo[4,3-c]pyridine-3-carboxamide]
Normalized Average of IP-10/CXCL10 (TRIM8): 0.468
Normalized Average of MIG/CXCL9 (TRIM8): 0.188
Normalized Average of I-TAC/CXCL11 (TRIM8): 0.426
Effect on inflammatory response (CXCL9, CXCL10, CXCL11 after IFN-γ) (TRIM8): significant inhibition of inflammatory response
TRIM8 inhibitor or enhancer activity found on testing (TRIM8): TRIM8 inhibitor
Average Normalized Cell Count (THP-1 cells): 0.960

COc1ccc(N2CCN(C(=O)c3cc4ccc5cccnc5c4[nH]3)CC2)cc1 [Compound 81, 1-(4-methoxyphenyl)-4-{1H-pyrrolo[3,2-h]quinoline-2-carbonyl}piperazine]
Normalized Average of IP-10/CXCL10 (TRIM8): 0.334
Normalized Average of MIG/CXCL9 (TRIM8): 0.138
Normalized Average of I-TAC/CXCL11 (TRIM8): 0.617
Effect on inflammatory response (CXCL9, CXCL10, CXCL11 after IFN-γ) (TRIM8): significant inhibition of inflammatory response
TRIM8 inhibitor or enhancer activity found on testing (TRIM8): strong inhibitor of TRIM8
Average Normalized Cell Count (THP-1 cells): 1.070

COc1ccc(-c2n[nH]c3c2C(c2ccccc2)C2=C(CC(C)(C)CC2=O)N3)cc1 (stereo not drawn) [Compound 76, 3-(4-methoxyphenyl)-7,7-dimethyl-4-phenyl-1H,4H,5H,6H,7H,8H,9H-pyrazolo[3,4-b]quinolin-5-one]
Normalized Average of IP-10/CXCL10 (TRIM8): 0.352
Normalized Average of MIG/CXCL9 (TRIM8): 0.085
Normalized Average of I-TAC/CXCL11 (TRIM8): <LLOD
Effect on inflammatory response (CXCL9, CXCL10, CXCL11 after IFN-γ) (TRIM8): significant inhibition of inflammatory response
TRIM8 inhibitor or enhancer activity found on testing (TRIM8): powerful TRIM8 inhibitor
Average Normalized Cell Count (THP-1 cells): 1.196

COc1ccc(Sc2ccc(=O)n(-c3ccc(C(=O)NCCCc4ccccc4)cc3)n2)cc1 [Compound 88, 4-{3-[(4-methoxyphenyl)sulfanyl]-6-oxo-1,6-dihydropyridazin-1-yl}-N-(3-phenylpropyl)benzamide]
Normalized Average of IP-10/CXCL10 (TRIM8): 0.127
Normalized Average of MIG/CXCL9 (TRIM8): 0.019
Normalized Average of I-TAC/CXCL11 (TRIM8): 0.744
Effect on inflammatory response (CXCL9, CXCL10, CXCL11 after IFN-γ) (TRIM8): significant inhibition of inflammatory response
TRIM8 inhibitor or enhancer activity found on testing (TRIM8): highly potent TRIM8 inhibitor
Average Normalized Cell Count (THP-1 cells): 0.837
